According to patent US20130040882A1, “USE OF FIBROBLAST GROWTH FACTOR FRAGMENTS” (NOVARTIS AG, priority 2003, published 2013):

System: uterine gene expression
Assay: Gene expression profiling (HGU133A) in the uterus of ovariectomized monkeys treated with estradiol, tamoxifen or raloxifene
Format: in vivo, cynomolgus monkeys (Macaca fascicularis)
Settings: uterus, OVX monkeys

CC/C(=C(\c1ccccc1)c1ccc(OCCN(C)C)cc1)c1ccccc1 [tamoxifen]
2.7 fold: Fold change relative to OVX: Collagen, type IV, alpha 1 (entry with OVX average 690)
1.3 fold: Fold change relative to SHAM control: Solute carrier family 2 (facilitated glucose/fructose transporter), member 5 (entry with SHAM average 291) | Fold change relative to SHAM control: Collagen, type IV, alpha 1 (entry with SHAM average 436) | Fold change relative to SHAM control: Fibrillin 1 (Marfan syndrome) (entry with SHAM average 1388) | Fold change relative to SHAM control: Collagen, type I, alpha 2 (entry with SHAM average 7758) | Fold change relative to SHAM control: H3 histone, family 3A (entry with SHAM average 10239)
2.9 fold: Fold change relative to SHAM control: Tenascin C (hexabrachion) | Fold change relative to OVX: Collagen, type III, alpha 1 (Ehlers-Danlos syndrome type IV, autosomal dominant) (entry with OVX average 3445)
1.1 fold: Fold change relative to SHAM control: LIM and senescent cell antigen-like domains 1 | Fold change relative to SHAM control: Procollagen C-endopeptidase enhancer | Fold change relative to SHAM control: Protein tyrosine kinase 9 | Fold change relative to SHAM control: Secreted frizzled-related protein 1 | Fold change relative to SHAM control: Serine (or cysteine) proteinase inhibitor, clade H (heat shock protein 47), member 1, (collagen binding protein 1) | Fold change relative to SHAM control: Ubiquinol-cytochrome c reductase, Rieske iron-sulfur polypeptide 1 | Fold change relative to SHAM control: Wingless-type MMTV integration site family, member 2B
0.7 fold: Fold change relative to OVX: Insulin receptor (Table 46) | Fold change relative to OVX: Insulin receptor (Table 51) | Fold change relative to OVX: Cyclin-dependent kinase inhibitor 1C (p57, Kip2) (entry with OVX average 224)
2.2 fold: Fold change relative to OVX: Bone morphogenetic protein 1 (entry with OVX average 93) | Fold change relative to OVX: Solute carrier family 2 (facilitated glucose/fructose transporter), member 5 (entry with OVX average 171)
0.6 fold: Fold change relative to SHAM control: Cyclin-dependent kinase inhibitor 1C (p57, Kip2) (entry with SHAM average 459) | Fold change relative to SHAM control: Cyclin-dependent kinase inhibitor 1C (p57, Kip2) (entry with SHAM average 660)
2.3 fold: Fold change relative to OVX: Fibronectin 1 (entry with OVX average 39)
2.6 fold: Fold change relative to SHAM control: Insulin-like growth factor 1 (somatomedin C) (entry with SHAM average 581)
4.6 fold: Fold change relative to OVX: Insulin-like growth factor 1 (somatomedin C) (entry with OVX average 156)
1.7 fold: Fold change relative to SHAM control: Insulin-like growth factor binding protein 2, 36 kda | Fold change relative to SHAM control: Insulin-like growth factor 1 (somatomedin C) (entry with SHAM average 226) | Fold change relative to SHAM control: Insulin-like growth factor 1 (somatomedin C) (entry with SHAM average 417)
1.5 fold: Fold change relative to SHAM control: Progesterone receptor | Fold change relative to SHAM control: Solute carrier family 22 (organic cation transporter), member 1-like | Fold change relative to SHAM control: Solute carrier family 25 (mitochondrial carrier; adenine nucleotide translocator), member 5 | Fold change relative to SHAM control: Testis Enhanced Gene Transcript (Bax Inhibitor 1)
3.7 fold: Fold change relative to OVX: Insulin-like growth factor 1 (somatomedin C) (entry with OVX average 102) | Fold change relative to OVX: Collagen, type I, alpha 2 (entry with OVX average 2757)
0.9 fold: Fold change relative to SHAM control: Integrin, beta 5 | Fold change relative to SHAM control: Intercrine-alpha, mrna sequence | Fold change relative to SHAM control: Phospholipid transfer protein | Fold change relative to SHAM control: Pituitary tumour-transforming 1 interacting protein | Fold change relative to SHAM control: Stem cell growth factor; lymphocyte secreted C-type lectin | Fold change relative to SHAM control: Thioredoxin interacting protein | Fold change relative to SHAM control: Fibronectin 1 (entry with SHAM average 100) | Fold change relative to SHAM control: Fibronectin 1 (entry with SHAM average 920) | Fold change relative to SHAM control: Fibronectin 1 (entry with SHAM average 1288) | Fold change relative to SHAM control: Fibronectin 1 (entry with SHAM average 1301)
3.4 fold: Fold change relative to OVX: Collagen, type III, alpha 1 (Ehlers-Danlos syndrome type IV, autosomal dominant) (entry with OVX average 1084)
1.2 fold: Fold change relative to SHAM control: Latent transforming growth factor beta binding protein 1 | Fold change relative to SHAM control: Insulin receptor (Table 46) | Fold change relative to SHAM control: Insulin receptor (Table 51) | Fold change relative to SHAM control: Solute carrier family 2 (facilitated glucose/fructose transporter), member 5 (entry with SHAM average 317) | Fold change relative to SHAM control: Collagen, type III, alpha 1 (Ehlers-Danlos syndrome type IV, autosomal dominant) (entry with SHAM average 2992)
1.4 fold: Fold change relative to SHAM control: H2A histone family, member Y | Fold change relative to SHAM control: Histone H2A.F/Z variant | Fold change relative to SHAM control: Nidogen (enactin) | Fold change relative to SHAM control: Peroxiredoxin 1 | Fold change relative to SHAM control: SET domain, bifurcated 1 | Fold change relative to SHAM control: Secreted frizzled-related protein 4 | Fold change relative to OVX: H3 histone, family 3A (entry with OVX average 9495) | Fold change relative to OVX: H3 histone, family 3A (entry with OVX average 9692) | Fold change relative to SHAM control: ATP synthase, H+ transporting, mitochondrial F0 complex, subunit c (subunit 9) isoform 3 (entry with SHAM average 1355) | Fold change relative to SHAM control: Collagen, type III, alpha 1 (Ehlers-Danlos syndrome type IV, autosomal dominant) (entry with SHAM average 7354) | Fold change relative to SHAM control: H3 histone, family 3A (entry with SHAM average 9408)
6.1 fold: Fold change relative to OVX: Collagen, type I, alpha 2 (entry with OVX average 154)
1.9 fold: Fold change relative to OVX: Bone morphogenetic protein 1 (entry with OVX average 79) | Fold change relative to OVX: Fibrillin 1 (Marfan syndrome) (entry with OVX average 124) | Fold change relative to OVX: Fibronectin 1 (entry with OVX average 586) | Fold change relative to OVX: Fibronectin 1 (entry with OVX average 648) | Fold change relative to OVX: ATP synthase, H+ transporting, mitochondrial F0 complex, subunit c (subunit 9) isoform 3 (entry with OVX average 1007) | Fold change relative to SHAM control: Collagen, type I, alpha 2 (entry with SHAM average 493)
1.0 fold: Fold change relative to SHAM control: Heparan sulfate proteoglycan 2 (perlecan) | Fold change relative to SHAM control: Insulin-like growth factor binding protein 5 | Fold change relative to SHAM control: Laminin, beta 1 | Fold change relative to SHAM control: Mitogen-activated protein kinase kinase kinase kinase 4 | Fold change relative to SHAM control: Phosphatase and tensin homolog (mutated in multiple advanced cancers 1) | Fold change relative to SHAM control: Procollagen-proline, 2-oxoglutarate 4-dioxygenase (proline 4-hydroxylase), alpha polypeptide II | Fold change relative to SHAM control: Secreted protein, acidic, cysteine-rich (osteonectin) | Fold change relative to SHAM control: Transforming growth factor, beta-induced, 68 kda | Fold change relative to SHAM control: Wingless-type MMTV integration site family, member 16 | Fold change relative to SHAM control: Bone morphogenetic protein 1 (entry with SHAM average 143) | Fold change relative to SHAM control: Bone morphogenetic protein 1 (entry with SHAM average 205) | Fold change relative to SHAM control: Fibrillin 1 (Marfan syndrome) (entry with SHAM average 236) | Fold change relative to SHAM control: Fibronectin 1 (entry with SHAM average 1089)
2.0 fold: Fold change relative to OVX: Fibronectin 1 (entry with OVX average 419) | Fold change relative to OVX: ATP synthase, H+ transporting, mitochondrial F0 complex, subunit c (subunit 9) isoform 3 (entry with OVX average 811)
4.8 fold: Fold change relative to OVX: Insulin-like growth factor 1 (somatomedin C) (entry with OVX average 310)
0.5 fold: Fold change relative to OVX: Cyclin-dependent kinase inhibitor 1C (p57, Kip2) (entry with OVX average 527) | Fold change relative to OVX: Cyclin-dependent kinase inhibitor 1C (p57, Kip2) (entry with OVX average 762)
1.6 fold: Fold change relative to SHAM control: LDL receptor adaptor protein | Fold change relative to OVX: Fibronectin 1 (entry with OVX average 757) | Fold change relative to SHAM control: ATP synthase, H+ transporting, mitochondrial F0 complex, subunit c (subunit 9) isoform 3 (entry with SHAM average 1045) | Fold change relative to SHAM control: Collagen, type IV, alpha 1 (entry with SHAM average 1143)
0.8 fold: Fold change relative to SHAM control: Growth associated protein 43 | Fold change relative to SHAM control: Osteoglycin (osteoinductive factor, mimecan) | Fold change relative to SHAM control: SPARC-like 1 (mast9, hevin) | Fold change relative to SHAM control: Cyclin-dependent kinase inhibitor 1C (p57, Kip2) (entry with SHAM average 201)
3.2 fold: Fold change relative to OVX: Collagen, type IV, alpha 1 (entry with OVX average 182)
2.1 fold: Fold change relative to OVX: Solute carrier family 2 (facilitated glucose/fructose transporter), member 5 (entry with OVX average 176) | Fold change relative to OVX: Fibrillin 1 (Marfan syndrome) (entry with OVX average 874)
0.3 fold: Fold change relative to SHAM control: Matrix metalloproteinase 19
